In US20050191344A1, “Liposome composition for delivery of therapeutic agents” (priority 2004, published 2005):

How the values were obtained:
[1] = Zeta potential of liposomes as a function of pH; assay type: physicochemical; conditions: FIG. 2
Text: As discussed in Example 5, zeta potential measurements were obtained for the liposomes containing DSPEI and for the liposomes containing HDSG. […] This is likely indicative of a higher pKa and greater charge at physiological pH. […] The greater neutrality of DSPEI-containing liposomes is important for minimization of non-specific interactions with plasma proteins and cells under in vivo conditions and thus prolonged circulation in the blood, which is necessary for systemic drug and gene delivery, as well as delivery of gene modulators, to diseased tissues.
With continuing reference to FIG. 2, zeta potential measurements were also determined for liposomes prepared using dimethyldioctadecylammonium bromide (DDAB) (diamonds). […] Therefore DDAB-containing liposomes retain their cationic charge at physiological pH and are more likely to participate in non-specific interactions with plasma proteins under in vivo conditions. DDAB-containing liposomes are consequently cleared rapidly from circulation and are less suitable for drug or gene delivery to diseased tissues.
Zeta potential was measured using a ZETASIZER 2000 from Malver Instruments, Inc. (Southborough Mass.). […]

[2] = reported values; cited from earlier work

pKa relative to the other lipids, inferred from zeta potential versus pH slope [1]	Structure (SMILES)	pKa [2]
higher than for either HDSG or DSPEI	CCCCCCCCCCCCCCCCCC[N+](C)(C)CCCCCCCCCCCCCCCCCC.[Br-] [DDAB, dimethyldioctadecylammonium bromide, reference compound]	
lower pKa than HDSG	CCCCCCCCCCCCCCCCCC(=O)OCC(COP(=O)(O)OCCNCc1c[nH]cn1)OC(=O)CCCCCCCCCCCCCCCCC (stereo not shown) [DSPEI, distearoylphosphatidylethanolamine imidazole]	
	NCCc1c[nH]cn1 [histamine]	6
	c1c[nH]cn1 [imidazole]	about 6.0
